From PMC8766184, “Molecular Docking, Synthesis, and Tyrosinase Inhibition Activity of Acetophenone Amide: Potential Inhibitor of Melanogenesis” (BioMed Research International, 2022)
Where two headings read alike, the source gives them in different places.

What was measured:
[1] = target: T1, mushroom tyrosinase (Agaricus bisporus, UniProt C7FF04); assay: In vitro mushroom tyrosinase inhibition assay (L-DOPA substrate, dopachrome absorbance); assay type: biochemical
T1 construct: purchased Sigma Aldrich
Procedure: In vitro antityrosinase potential was determined following the method previously described with little modifications [33, 34]. Briefly, 140 μL of sodium phosphate buffer, 20 μL (30 U/mL) of the enzyme mushroom tyrosinase, and 20 μL of the tested compound were added in a well of a 96-well microplate. After a preincubation of 10 minutes at room temperature of 20 μL (0.85 mM), the substrate L-DOPA was added followed by an incubation of 20 minutes at the same temperature. Subsequently, the absorbance of the intermediate dopachrome was recorded by using an Opti Max tunable microplate reader (Sunnyvale, USA) at 472 nm. […] The negative inhibitor was a phosphate buffer without an inhibitor.

[2] = target: T1, mushroom tyrosinase; assay: Mushroom tyrosinase inhibitory kinetics (Lineweaver-Burk and Dixon plots); assay type: biochemical
Procedure: Various concentrations of the inhibitor 5c were among 0.00 to 0.013 μM and that of L-DOPA was 0.00 to 0.0064 μM during all kinetic assays. For preincubation and calculations, the same protocol was followed as described in in vitro tyrosinase inhibition assay and continuous monitoring at 30 s interval for 5 minutes after adding the enzyme tyrosinase, and the formation of dopachrome was measured at 475 nm. The enzyme inhibitory action and the kind of inhibition were determined by the Lineweaver-Burk and Dixon plots. 1/V (inverse of velocities) versus 1/[S] (inverse of substrate concentration) mM^−1 were plotted to determine inhibition constant Ki.
The enzyme inhibitory interaction mechanism of 3(a–e) and 5(a–e) with the binding site of mushroom tyrosinase was determined using Michaelis-Menten kinetic studies. […] A striking reduction in the reaction rate in the presence of inhibitors refers to a decrease in the final absorbance in comparison to control without inhibitors. The inhibitory index of all these tested compounds varied depending upon the position of various substituents and classes of compounds [27]. Inhibition kinetics was analyzed by the Lineweaver-Burk and Dixon plots.

T1 sequence (C7FF04 1-392): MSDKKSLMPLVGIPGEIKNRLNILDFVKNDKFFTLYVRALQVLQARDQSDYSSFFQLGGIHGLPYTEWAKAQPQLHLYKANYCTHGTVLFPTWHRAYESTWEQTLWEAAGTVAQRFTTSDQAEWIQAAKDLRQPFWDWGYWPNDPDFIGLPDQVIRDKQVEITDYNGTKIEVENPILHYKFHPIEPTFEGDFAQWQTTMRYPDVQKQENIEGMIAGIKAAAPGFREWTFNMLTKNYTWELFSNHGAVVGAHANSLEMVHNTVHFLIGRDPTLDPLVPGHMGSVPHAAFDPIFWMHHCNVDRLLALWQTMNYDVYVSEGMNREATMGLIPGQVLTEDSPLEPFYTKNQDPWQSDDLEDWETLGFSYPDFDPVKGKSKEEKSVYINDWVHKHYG

| Structure (SMILES) | IC50 [1] | other results |
| --- | --- | --- |
| CC(=O)c1cccc(NC(=O)COC(=O)c2cccc(O)c2)c1 [Compound 3a, 2-(3-acetylphenylamino)-2-oxoethyl-3-hydroxybenzoate] | 323 ± 16.9 µM |  |
| CC(=O)c1cccc(NC(=O)COC(=O)c2ccc(O)cc2)c1 [Compound 3b, 2-(3-acetylphenylamino)-2-oxoethyl-4-hydroxybenzoate] | 288 ± 32.2 µM |  |
| CC(=O)c1cccc(NC(=O)COC(=O)c2ccc(O)cc2O)c1 [Compound 3c, 2-(3-acetylphenylamino)-2-oxoethyl 2,4-dihydroxybenzoate] | 27.4 ± 3.6 µM |  |
| CC(=O)c1cccc(NC(=O)COC(=O)c2ccc(O)c(O)c2)c1 [Compound 3d, 2-(3-acetylphenylamino)-2-oxoethyl 3,4-dihydroxybenzoate] | 128 ± 8.5 µM |  |
| CC(=O)c1cccc(NC(=O)COC(=O)c2cc(O)cc(O)c2)c1 [Compound 3e, 2-(3-acetylphenylamino)-2-oxoethyl 3,5-dihydroxybenzoate] | 255 ± 14.2 µM |  |
| CC(=O)c1cccc(NC(=O)COC(=O)C=Cc2ccccc2)c1 [Compound 5a, 2-(3-acetylphenylamino)-2-oxoethylcinnamate] | 46.4 ± 5.8 µM | melting point: 159 to 161 °C |
| CC(=O)c1cccc(NC(=O)COC(=O)/C=C/c2ccc(O)cc2)c1 [Compound 5b, 2-(3-acetylphenylamino)-2-oxoethyl(E)-3-(4-hydroxyphenyl) acrylate] | 309 ± 36.8 µM |  |
| CC(=O)c1cccc(NC(=O)COC(=O)/C=C/c2ccc(O)cc2O)c1 [Compound 5c, 2-(3-acetylphenylamino)-2-oxoethyl(E)-3-(2,4-dihydroxyphenyl)acrylate] |  | IC50 ([1]; L-DOPA 0.85 mM substrate, enzyme 30 U/mL, absorbance at 472 nm, read-out: Mushroom tyrosinase inhibition IC50 ± SEM): 0.002 ± 0.0002 µM; Ki ([2]; Dixon plot, L-DOPA substrate, read-out: dissociation constant (Ki)): 0.0072 µM; type of inhibition ([2]; Lineweaver-Burk plot, L-DOPA substrate): competitive; reversibility of inhibition ([2]; remaining enzyme activity vs enzyme concentration at various inhibitor doses, L-DOPA): reversible |
| CC(=O)c1cccc(NC(=O)COC(=O)/C=C/c2ccc(Cl)cc2)c1 [Compound 5d, 2-(3-acetylphenylamino)-2-oxoethyl(E)-3-(4-chlorophenyl)acrylate] | 61.6 ± 11.4 µM |  |
